ChEMBL document CHEMBL1143947, “Synthesis and in silico biological activity evaluation of new N-substituted pyrazolo-oxazin-2-one systems” (Bioorg Med Chem, 2008)

What was measured:
[1] = biological target: Prostaglandin G/H synthase 1 (Ovis aries) (UniProt P05979); assay: Inhibition of COX1 at 100 uM
[2] = biological target: Prostaglandin G/H synthase 1 (Ovis aries) (UniProt P05979); assay: Inhibition of COX1 at 200 uM
[3] = biological target: Prostaglandin G/H synthase 1 (Ovis aries) (UniProt P05979); assay: Inhibition of COX1

Prostaglandin G/H synthase 1 (Ovis aries), sequence (P05979 whole entry, looked up): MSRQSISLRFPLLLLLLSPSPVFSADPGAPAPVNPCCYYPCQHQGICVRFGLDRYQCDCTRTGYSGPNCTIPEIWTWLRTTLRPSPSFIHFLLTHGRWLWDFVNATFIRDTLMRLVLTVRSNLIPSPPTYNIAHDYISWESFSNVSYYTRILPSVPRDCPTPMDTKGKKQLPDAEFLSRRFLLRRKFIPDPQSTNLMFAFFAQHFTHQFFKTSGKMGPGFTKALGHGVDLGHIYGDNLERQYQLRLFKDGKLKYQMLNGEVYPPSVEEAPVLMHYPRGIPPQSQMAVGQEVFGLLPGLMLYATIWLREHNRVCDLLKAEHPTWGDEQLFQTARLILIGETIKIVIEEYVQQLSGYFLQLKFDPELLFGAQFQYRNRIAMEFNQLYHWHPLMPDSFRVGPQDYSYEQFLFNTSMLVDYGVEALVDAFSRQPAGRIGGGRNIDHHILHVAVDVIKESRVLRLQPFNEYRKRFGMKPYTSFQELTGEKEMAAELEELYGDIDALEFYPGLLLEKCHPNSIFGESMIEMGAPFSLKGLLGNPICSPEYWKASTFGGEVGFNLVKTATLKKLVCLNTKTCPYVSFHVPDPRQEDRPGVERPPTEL

Compound | inhibition [1] [%] | inhibition [2] [%] | IC50 [3] [µM]
CCN1C(=O)O/C(=C2/C(=O)N(c3ccccc3)N=C2C)C=C1C | 0 | 19.9 | 
CC1=C/C(=C2\C(=O)N(c3ccccc3)N=C2C)OC(=O)N1c1ccccc1 | 61.8 |  | 79.4
CC1=C/C(=C2\C(=O)N(c3ccccc3)N=C2C)OC(=O)N1c1ccc(Cl)cc1 | 21.9 |  | 251
CC1=C/C(=C2\C(=O)N(c3ccccc3)N=C2C)OC(=O)N1c1ccc(C)cc1 | 54.6 |  | 91.2
CC1=C/C(=C2\C(=O)N(c3ccccc3)N=C2C)OC(=O)N1Cc1ccccc1 | 18 |  | 
COc1ccc(N2C(=O)O/C(=C3/C(=O)N(c4ccccc4)N=C3C)C=C2C)cc1 | 22.6 |  | 269
CC1=C/C(=C2\C(=O)N(c3ccccc3)N=C2C)OC(=O)N1c1ccc(Br)cc1 | 15 |  | 
CCCN1C(=O)O/C(=C2/C(=O)N(c3ccccc3)N=C2C)C=C1C | 16 |  | 
